Assay results as given in patent US12421212B2, “Substituted benzenecarboxamides as IL-17A modulators” (DiCE Alpha, Inc., priority 2019, dated 2025).

Biological target: T1, IL-17A/A (Homo sapiens, UniProt Q16552)
T1 construct: purchased Genscript Z03228
T1 sequence (Q16552 24-155): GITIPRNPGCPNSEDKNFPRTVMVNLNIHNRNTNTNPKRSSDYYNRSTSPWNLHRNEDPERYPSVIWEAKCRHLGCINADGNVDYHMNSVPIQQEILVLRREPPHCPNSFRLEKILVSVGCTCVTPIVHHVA
Assay: IL-17A/A HEK-Blue Cell Assay
Assay type: cell-based
Details: HEK-Blue IL-17A reporter cell line, SEAP readout at A630, 20 hours incubation with IL-17A/A, top concentration 10 uM, 1 uM or 0.3 uM; for IC50: read-out: IL-17A/A inhibition (pIC50) (converted)
Protocol: The HEK-Blue IL-17A reporter cell line (Fisher #NC1408637) was used for cell-based IL-17A/A inhibition assays. Cells were grown and prepared for assays according to the manufacturer's instructions. This cell line consists of HEK 293 cells that were designed to expressed IL-17RA, IL-17RC, and the ActI adapter molecule, the combination of which, when stimulated by IL-17A/A activates a NFκB promoter and drives expression of a recombinant Secreted Alkaline Phosphatase (SEAP) geneprotein. Media from the cells is then added to a development reagent (Quanti-Blue Substrate, Fisher #NC9711613), and read at A630.
Compounds were titrated in DMSO, with a top final compound concentration of 10 uM, 1 uM, or 0.3 uM, and added to the cells immediately before adding IL-17A/A (Genscript #Z03228). The cells, compound, and IL-17A/A were then incubated for 20 hours before media was removed for SEAP analysis. The resulting inhibition curve was then analyzed using Graphpad Prism 7.0, and IC50 values were determined using a 4-parameter nonlinear fit. DMSO was added to a universal final concentration of 0.1% to optimize background.

Structure (SMILES)	IL-17A/A inhibition (pIC50)	IC50 [nM]
CCC(=O)N[C@@H](C(=O)N1CCN(C)CC1)[C@@H](C)c1ccc(NC(=O)[C@@H](NC(=O)C(F)(F)C2CC2)C2CCCCC2)c(F)c1 [Compound 242]	X2b (compounds were evaluated up to 1 uM and inhibited activity at 1 uM by less than 20%)	–
CCC(=O)N[C@@H](C(=O)N1CCN(C)CC1)[C@@H](C)c1ccc(NC(=O)[C@@H](NC(=O)C(F)(F)c2cccc(OC)c2)C2CCCCC2)c(F)c1 [Compound 243]	–	10 to 100
CCC(=O)N[C@@H](C(=O)N1CCN(C)CC1)[C@@H](C)c1ccc(NC(=O)[C@@H](NC(=O)C(F)(F)c2ccc3c(c2)OCO3)C2CCCCC2)c(F)c1 [Compound 244]	–	10 to 100
CCC(=O)N[C@@H](C(=O)N1CCN(C)CC1)[C@@H](C)c1ccc(NC(=O)[C@@H](NC(=O)C(F)(F)c2ccc3[nH]ncc3c2)C2CCCCC2)c(F)c1 [Compound 245]	–	10 to 100
CCC(=O)N[C@@H](C(=O)N1CCN(C)CC1)[C@@H](C)c1ccc(NC(=O)[C@@H](NC(=O)C(F)(F)c2cncc(OC)c2)C2CCCCC2)c(F)c1 [Compound 246]	–	10 to 100
CCC(=O)N[C@@H](C(=O)N1CCN(C)CC1)[C@@H](C)c1ccc(NC(=O)[C@@H](NC(=O)c2coc3ccncc23)C2CCCCC2)c(F)c1 [Compound 247]	–	10 to 100
CCC(=O)N[C@@H](C(=O)N1CCN(C)CC1)[C@@H](C)c1ccc(NC(=O)[C@@H](NC(=O)c2csc3ccccc23)C2CCCCC2)c(F)c1 [Compound 248]	–	10 to 100
CCC(=O)N[C@@H](C(=O)N1CCN(C)CC1)[C@@H](C)c1ccc(NC(=O)[C@@H](NC(=O)c2csc3cnccc23)C2CCCCC2)c(F)c1 [Compound 249]	–	10 to 100
CCC(=O)N[C@@H](C(=O)N1CCN(C)CC1)[C@@H](C)c1ccc(NC(=O)[C@@H](NC(=O)c2csc3ncccc23)C2CCCCC2)c(F)c1 [Compound 250]	–	10 to 100
CCC(=O)N[C@@H](C(=O)N1CCN(C)CC1)[C@@H](C)c1ccc(NC(=O)[C@@H](NC(=O)C(F)(F)c2cccc(NS(C)(=O)=O)c2)C2CCCCC2)c(F)c1 [Compound 251]	–	10 to 100
CCC(=O)N[C@@H](C(=O)N1CCN(C)CC1)[C@@H](C)c1ccc(NC(=O)[C@@H](NC(=O)C(F)(F)C2CCCCC2)C2CCCCC2)c(F)c1 [Compound 252]	–	10 to 100
CCC(=O)N[C@@H](C(=O)N1CCN(C)CC1)[C@@H](C)c1ccc(NC(=O)[C@@H](NC(=O)c2ccnn2C(C)C)[C@H]2CC[C@H](C)CC2)c(F)c1 [Compound 253]	–	< 10
CCC(=O)N[C@@H](C(=O)N1CCN(C)CC1)[C@@H](C)c1ccc(NC(=O)[C@@H](NC(=O)c2cccn2CC)C2CCCCC2)c(F)c1 [Compound 254]	–	10 to 100
CCC(=O)N[C@@H](C(=O)N1CCN(C)CC1)[C@@H](C)c1ccc(NC(=O)[C@@H](NC(=O)c2coc3cc(OC)ccc23)C2CCCCC2)c(F)c1 [Compound 255]	–	10 to 100
CCC(=O)N[C@@H](C(=O)N1CCN(C)CC1)[C@@H](C)c1ccc(NC(=O)[C@@H](NC(=O)c2ccnn2C(C)C)C2CCCCC2)c(F)c1 [Compound 256]	–	10 to 100
CCC(=O)N[C@@H](C(=O)N1CCN(C)CC1)[C@@H](C)c1ccc(NC(=O)[C@@H](NC(=O)c2conc2CC)C2CCCCCC2)c(F)c1 [Compound 257]	–	< 10
CCC(=O)N[C@@H](C(=O)N1CCN(C)CC1)[C@@H](C)c1ccc(NC(=O)[C@@H](NC(=O)c2coc3cc(OC)ccc23)C2CCCCCC2)c(F)c1 [Compound 258]	–	< 10
CCC(=O)N[C@@H](C(=O)N1CCN(C)CC1)[C@@H](C)c1ccc(NC(=O)[C@@H](NC(=O)c2csc3ccccc23)C2CCCCCC2)c(F)c1 [Compound 259]	–	< 10
CCC(=O)N[C@@H](C(=O)N1CCN(C)CC1)[C@@H](C)c1ccc(NC(=O)[C@@H](NC(=O)C(F)(F)c2cccc(C#N)c2)C2CCCCCC2)c(F)c1 [Compound 260]	–	< 10

Structure (SMILES)	IL-17A/A inhibition (pIC50)	IC50 [nM]
CCC(=O)N[C@@H](C(=O)N1CCN(C)CC1)[C@@H](C)c1ccc(NC(=O)[C@@H](NC(=O)C(F)(F)c2cncc(C#N)c2)C2CCCCCC2)c(F)c1 [Compound 261]	–	< 10
CCC(=O)N[C@@H](C(=O)N1CCN(C)CC1)[C@@H](C)c1ccc(NC(=O)[C@@H](NC(=O)C(F)(F)c2cncc(OC)c2)C2CCCCCC2)c(F)c1 [Compound 262]	–	10 to 100
CCC(=O)N[C@@H](C(=O)N1CCN(C)CC1)[C@@H](C)c1ccc(NC(=O)[C@@H](NC(=O)C(F)(F)c2cccc(C#N)c2)C2CCC(F)(F)CC2)c(F)c1 [Compound 263]	–	< 10
CCC(=O)N[C@@H](C(=O)N1CCN(C)CC1)[C@@H](C)c1ccc(NC(=O)[C@@H](NC(=O)c2conc2CC)[C@H]2CC[C@H](C)CC2)c(F)c1 [Compound 264]	–	10 to 100
CCC(=O)N[C@@H](C(=O)N1CCN(C)CC1)[C@@H](C)c1ccc(NC(=O)[C@@H](NC(=O)C(F)(F)c2csc(C)c2)C2CCCCCC2)c(F)c1 [Compound 265]	–	< 10
CCC(=O)N[C@@H](C(=O)N1CCN(C)CC1)[C@@H](C)c1ccc(NC(=O)[C@@H](NC(=O)c2coc3c2COC3)C2CCCCCC2)c(F)c1 [Compound 266]	–	< 10
CCC(=O)N[C@@H](C(=O)N1CCN(C)CC1)[C@@H](C)c1ccc(NC(=O)[C@@H](NC(=O)C(F)(F)c2cnn(CC)c2)C2CCCCCC2)c(F)c1 [Compound 267]	–	< 10
CCC(=O)N[C@@H](C(=O)N1CCN(C)CC1)[C@@H](C)c1ccc(NC(=O)[C@@H](NC(=O)c2conc2C(C)C)C2CCCCCC2)c(F)c1 [Compound 268]	–	< 10
CCC(=O)N[C@@H](C(=O)N1CCN(C)CC1)[C@@H](C)c1ccc(NC(=O)[C@@H](NC(=O)c2conc2C2CC2)C2CCCCCC2)c(F)c1 [Compound 269]	–	< 10
CCC(=O)N[C@@H](C(=O)N1CCN(C)CC1)[C@@H](C)c1ccc(NC(=O)[C@@H](NC(=O)c2nonc2CC)C2CCCCCC2)c(F)c1 [Compound 270]	–	< 10
CCC(=O)N[C@@H](C(=O)N1CCN(C)CC1)[C@@H](C)c1ccc(NC(=O)[C@@H](NC(=O)c2ccnn2CC2CC2)C2CCCCCC2)c(F)c1 [Compound 271]	–	< 10
CCC(=O)N[C@@H](C(=O)N1CCN(C)CC1)[C@@H](C)c1ccc(NC(=O)[C@@H](NC(=O)c2ccoc2C(C)C)C2CCCCCC2)c(F)c1 [Compound 272]	–	< 10
CCC(=O)N[C@@H](C(=O)N1CCN(C)CC1)[C@@H](C)c1ccc(NC(=O)[C@@H](NC(=O)c2ccnn2C2CCCC2)C2CCCCCC2)c(F)c1 [Compound 273]	–	< 10
CCC(=O)N[C@@H](C(=O)N1CCN(C)CC1)[C@@H](C)c1ccc(NC(=O)[C@@H](NC(=O)c2cccn2C(C)C)C2CCCCCC2)c(F)c1 [Compound 274]	–	< 10
CCC(=O)N[C@@H](C(=O)N1CCN(C)CC1)[C@@H](C)c1ccc(NC(=O)[C@@H](NC(=O)c2cccn2CC)C2CCCCCC2)c(F)c1 [Compound 275]	–	< 10
CCC(=O)N[C@@H](C(=O)N1CCN(C)CC1)[C@@H](C)c1ccc(NC(=O)[C@@H](NC(=O)C(F)(F)c2csc(C)c2)[C@H]2CC[C@H](C)CC2)c(F)c1 [Compound 276]	–	10 to 100
CCC(=O)N[C@@H](C(=O)N1CCN(C)CC1)[C@@H](C)c1ccc(NC(=O)[C@@H](NC(=O)c2coc3c2COC3)[C@H]2CC[C@H](C)CC2)c(F)c1 [Compound 277]	–	< 10
CCC(=O)N[C@@H](C(=O)N1CCN(C)CC1)[C@@H](C)c1ccc(NC(=O)[C@@H](NC(=O)c2nonc2CC)[C@H]2CC[C@H](C)CC2)c(F)c1 [Compound 278]	–	< 10
